According to ChEMBL document CHEMBL1131706, “S1319: a novel beta2-andrenoceptor agonist from a marine sponge Dysidea sp” (Bioorg Med Chem Lett, 1999):

Legend:
Cavia porcellus = organism: Cavia porcellus; assay: Compound was tested for the ability to relax histamine induced contraction of isolated trachea; format: functional
[1] = biological target: Beta-1 adrenergic receptor (Homo sapiens, UniProt P08588)
Description: Compound was tested for its binding affinity to human Beta-1 adrenergic receptor by using the radioligand [3H]CGP-12177

[2] = biological target: Beta-2 adrenergic receptor (Homo sapiens, UniProt P07550)
Sequence of Beta-2 adrenergic receptor (P07550 whole entry): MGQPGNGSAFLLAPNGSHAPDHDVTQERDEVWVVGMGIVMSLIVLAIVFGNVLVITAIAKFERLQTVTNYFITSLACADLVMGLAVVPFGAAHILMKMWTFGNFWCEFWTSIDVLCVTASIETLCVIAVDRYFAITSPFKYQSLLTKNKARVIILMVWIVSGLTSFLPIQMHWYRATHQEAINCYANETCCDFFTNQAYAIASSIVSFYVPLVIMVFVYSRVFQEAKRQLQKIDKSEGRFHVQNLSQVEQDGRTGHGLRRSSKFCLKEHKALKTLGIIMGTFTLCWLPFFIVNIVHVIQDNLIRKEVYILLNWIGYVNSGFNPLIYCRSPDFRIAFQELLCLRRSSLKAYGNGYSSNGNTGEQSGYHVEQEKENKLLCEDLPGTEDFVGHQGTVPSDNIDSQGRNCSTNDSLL
Description: Compound was tested for its binding affinity to human Beta-2 adrenergic receptor by using the radioligand [3H]CGP-12177

Sequence of Beta-1 adrenergic receptor (P08588 whole entry): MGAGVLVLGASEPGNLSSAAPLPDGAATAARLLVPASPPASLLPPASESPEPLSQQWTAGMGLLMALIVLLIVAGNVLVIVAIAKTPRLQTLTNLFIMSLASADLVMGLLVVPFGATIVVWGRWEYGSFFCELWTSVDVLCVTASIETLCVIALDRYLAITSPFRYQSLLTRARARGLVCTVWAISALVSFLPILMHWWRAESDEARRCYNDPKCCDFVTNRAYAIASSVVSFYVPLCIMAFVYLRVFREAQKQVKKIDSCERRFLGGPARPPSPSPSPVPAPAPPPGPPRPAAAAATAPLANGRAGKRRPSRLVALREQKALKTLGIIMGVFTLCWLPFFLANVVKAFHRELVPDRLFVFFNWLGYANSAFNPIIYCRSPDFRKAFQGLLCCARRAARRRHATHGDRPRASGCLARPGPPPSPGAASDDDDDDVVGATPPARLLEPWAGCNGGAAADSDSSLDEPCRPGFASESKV

| Compound | pD2 (Cavia porcellus) | Kd [1] [nM] | Kd [2] [nM] |
| --- | --- | --- | --- |
| CNCC(O)c1ccc(OC)c2c1sc(=O)n2C (centres undefined) | 7.08 |  |  |
| CNCC(O)c1ccc(O)c2nc(O)sc12 (centres undefined) | 10.6 | 120 | 51 |
